# Measurements taken from patent publication US8318697B2, “Prophylactic and therapeutic treatment of infectious and other diseases with mono- and disaccharide-based compounds” (Corixa Corporation, priority 2000, dated 2012).
# Like-named read-outs stand apart in the source and are kept apart here.
# How the values were obtained:
# [1] = test system: L. monocytogenes 10403 serotype; assay: Murine Listeria monocytogenes challenge model; type: in vivo, Mice; details: 1 μg intravenously in 0.2% TEOA, challenge two days later; FIGS. 14-17
# Method: This example provides experiments evaluating the induction of non-specific resistance in the murine Listeria monocytogenes challenge model performed using various AGPs and MPL. Mice (5 per group) were treated intravenously with the 1 μg of an AGP or MPL solubilized in 0.2% TEOA. Two days later the mice were challenged intravenously with a ˜10^5 L. monocytogenes 10403 serotype (provided by M. L. Gray, Montana State University, Bozeman, Mont.). Two days after the challenge, the mice were sacrificed and the number of colony forming units (CFUs) in the spleens of individual mice were determined by plating 10-fold serial dilutions of splenic homogenates on tryptic soy agar plates. The degree of protection afforded by a given AGP or MPL was calculated by subtracting the average number of bacteria per spleen (log 10 value) in the group of mice treated with a given compound, from the average number of bacteria per spleen (log 10 value) in a control group that was “sham” treated with vehicle (0.2% TEOA) prior to challenge with L. monocytogenes.
# human whole blood = type: cell-based; details: for IL10/TNFα cba: ratio of IL-10 to TNF; for TNFα/IL10 cba: ratio of TNF to IL-10
# influenza A/HK/68 = assay: Lethal influenza challenge model, intranasal monotherapy; details: i.n.; for protection against influenza challenge over dose range: doses up to 40 μg, FIG. 12; for protection against influenza challenge, compared by secondary fatty acid chains: FIG. 11, FIG. 13
# Method: A dose of 20 μg MonoPhosphoryl Lipid A (MPL) was given to groups of female BALB/c mice by intranasal (i.n.) administration either 2 days prior to or the day of lethal influenza challenge. All mice were challenged with approximately 2 LD50 infectious influenza A/HK/68 administered i.n. Mortality was monitored for 21 days following influenza challenge.
# A dose of 20 μg L-Seryl AGPs (RC-526, RC-554, RC-555, RC-537, RC-527, RC-538, RC-560, RC-512 and vehicle only) was given to groups of female BALB/c mice by intranasal (i.n.) administration 2 days prior to or the day of lethal influenza challenge. All mice were challenged with approximately 2 LD50 infectious influenza A/HK/68 administered i.n. The disease index (ruffled fur, hunched posture and labored breathing) was monitored during days 4-19 following influenza challenge. Weight loss and mortality were monitored for 21 days following influenza challenge.
# human PBMCs = assay: Lineage specific cell surface activation markers in human PBMCs; type: cell-based; details: LPS 10 ng/ml, RC-526 or RC-527 10 μg/ml
# Method: This experiment describes lineage specific cell surface activation markers in human PBMCs activated with LPS or selected AGPs. PBMCs were harvested from a normal donor and plated at 1×10^7 cells/well in a […] (6 well plate) with 3 ml RPMI. LPS (10 ng/ml), RC-526 (10 μg/ml) or RC-527 (10 μg/ml) were added to each of 4 wells. Cells were harvested from each of 2 wells at 4 hr and 24 hr following activation and immediately stained for the lineage and cell surface activation markers.
# [2] = test system: Ogawa P. gingivalis LPS stimulated whole blood cells; assay: Inhibition of LPS-induced cytokines in whole blood; type: cell-based, human; details: 10, 5, 2.5 ug/mL
# Description: Table 4 provides the maximum levels of IL-4, IL-2 and IL-5 obtained, as well as ratios of TNF to IL-10, and ratios of IL-10 to TNF. Inhibition data for IL-8, reported as a percentage, are also provided on the right hand side of Table 4. For example, 90% inhibition would calculate to a 90% reduction of cytokine levels. MIP-1β results were similar. […]
# [3] = test system: human peripheral blood mononuclear cells (PBMC); assay: Cytokine elaboration from frozen human PBMC (ELISA); type: cell-based; details: PBMC donor AD112, 22 hours; FIG. 9
# Method: PBMC were stored frozen until used. PBMC donor designation was AD112. PBMC at a density of 6.26×10^5 were plated per well in a 48 well plate in 1.0 ml of medium. Medium consisted of RPMI-1640 plus sodium bicarbonate, 10% fetal bovine serum, 4 mM glutamine, 100 ug/ml gentamicin and 10 mM HEPES. PBMC were cultured for 22 hours at 37° C. in a carbon dioxide incubator. Supernatants were harvested and tested by ELISA (R&D Systems) for IL-6, IL-8, IL-10 and MIP-1 beta concentration. Cytokine concentration in supernatants was compared to supernatants obtained from unstimulated PBMC cultured identically.
structure (smiles),measurement,setting,value
CCCCCCCCCCC[C@H](CC(=O)NCCO[C@@H]1O[C@H](CO)[C@@H](OP(=O)(O)O)[C@H](OC(=O)C[C@@H](CCCCCCCCCCC)OC(=O)CCCCCCCCC)[C@H]1NC(=O)C[C@@H](CCCCCCCCCCC)OC(=O)CCCCCCCCC)OC(=O)CCCCCCCCC.CCN(CC)CC [RC-524],protection against L. monocytogenes challenge (reduction of log 10 bacteria per spleen vs vehicle),[1],protection that was equal to or greater than that provided by MPL
same,IL10/TNFα cba,human whole blood; donor 1,1.8
same,TNFα/IL10 cba,human whole blood; donor 1,0.2
same,IL10/TNFα cba,human whole blood; donor 2,4
same,TNFα/IL10 cba,human whole blood; donor 2,0.3
CCCCCCCCCCC[C@H](CC(=O)N[C@H]1[C@H](OC[C@H](NC(=O)C[C@@H](CCCCCCCCCCC)OC(=O)CCCCC)C(=O)O)O[C@H](CO)[C@@H](OP(=O)(O)O)[C@@H]1OC(=O)C[C@@H](CCCCCCCCCCC)OC(=O)CCCCC)OC(=O)CCCCC.CCN(CC)CC [RC-526],protection against influenza challenge over dose range,influenza A/HK/68,no difference in protection up to doses of 40 μg
same,CD3+ CD69+ percent expression in NK-Cells (CD56+),human PBMCs; 4 hr activation,1%
same,CD25+ percent expression in B-cells (CD19+),human PBMCs; 4 hr activation,0%
same,CD25+ percent expression in Mono/Macs (CD14+),human PBMCs; 4 hr activation,1%
same,CD69+ percent expression in B-cells (CD19+),human PBMCs; 4 hr activation,11%
same,CD69+ percent expression in Mono/Macs (CD14+),human PBMCs; 4 hr activation,1%
same,CD69+ percent expression in NK-Cells (CD56+),human PBMCs; 4 hr activation,4%
same,CD69+ percent expression in T-cells (CD3+),human PBMCs; 4 hr activation,1%
same,CD86+ percent expression in B-cells (CD19+),human PBMCs; 4 hr activation,4%
same,CD95+ percent expression in B-cells (CD19+),human PBMCs; 4 hr activation,6%
same,MFI CD11b+ in Mono/Macs (CD14+),human PBMCs; 4 hr activation,2154
same,MFI CD54+ (ICAM-1) in B-cells (CD19+),human PBMCs; 4 hr activation,55
same,MFI CD54+(ICAM-1) in Mono/Macs (CD14+),human PBMCs; 4 hr activation,502
same,TLR2+ percent expression in Mono/Macs (CD14+),human PBMCs; 4 hr activation,93%
same,CD3+ CD69+ percent expression in NK-Cells (CD56+),human PBMCs; 24 hr activation,2%
same,CD14+ CD25+ percent expression in Mono/Macs (CD14+),human PBMCs; 24 hr activation,1%
same,CD14+ CD69+ percent expression in Mono/Macs (CD14+),human PBMCs; 24 hr activation,2%
same,CD14+ TLR2+ percent expression in Mono/Macs (CD14+),human PBMCs; 24 hr activation,79%
same,CD19+ CD25+ percent expression in B-Cells (CD19+),human PBMCs; 24 hr activation,9%
same,CD19+ CD69+ percent expression in B-Cells (CD19+),human PBMCs; 24 hr activation,22%
same,CD19+ CD86+ percent expression in B-Cells (CD19+),human PBMCs; 24 hr activation,22%
same,CD19+ CD95+ percent expression in B-Cells (CD19+),human PBMCs; 24 hr activation,15%
same,CD69+ percent expression in NK-Cells (CD56+),human PBMCs; 24 hr activation,4%
same,CD69+ percent expression in T-cells (CD3+),human PBMCs; 24 hr activation,2%
same,MFI CD11b+ in Mono/Macs (CD14+),human PBMCs; 24 hr activation,1986
same,MFI CD54+ (ICAM-1) in B-cells (CD19+),human PBMCs; 24 hr activation,118
same,MFI CD54+(ICAM-1) in Mono/Macs (CD14+),human PBMCs; 24 hr activation,1590
same,IL-1β cba2,human whole blood; donor 1,256
same,IL10/TNFα cba,human whole blood; donor 2,1.2
same,TNFα/IL10 cba,human whole blood; donor 2,0.9
same,cytokine stimulation in human whole blood cultures,human whole blood; overnight culture,little if any cytokine stimulation
same,% inhib. LPS IL-8,[2],99%
CCCCCCCCCCC[C@H](CC(=O)N[C@H]1[C@H](OC[C@H](NC(=O)C[C@@H](CCCCCCCCCCC)OC(=O)CCCCCCCCC)C(=O)O)O[C@H](CO)[C@@H](OP(=O)(O)O)[C@@H]1OC(=O)C[C@@H](CCCCCCCCCCC)OC(=O)CCCCCCCCC)OC(=O)CCCCCCCCC.CCN(CC)CC [RC-527],protection against influenza challenge over dose range,influenza A/HK/68,maximum protection over a dose range of 2.5 μg to 40 μg
same,protection against L. monocytogenes challenge (reduction of log 10 bacteria per spleen vs vehicle),[1],protection that was equal to or greater than that provided by MPL
same,CD3+ CD69+ percent expression in NK-Cells (CD56+),human PBMCs; 4 hr activation,11%
same,CD25+ percent expression in B-cells (CD19+),human PBMCs; 4 hr activation,0%
same,CD25+ percent expression in Mono/Macs (CD14+),human PBMCs; 4 hr activation,1%
same,CD69+ percent expression in B-cells (CD19+),human PBMCs; 4 hr activation,56%
same,CD69+ percent expression in Mono/Macs (CD14+),human PBMCs; 4 hr activation,22%
same,CD69+ percent expression in NK-Cells (CD56+),human PBMCs; 4 hr activation,40%
same,CD69+ percent expression in T-cells (CD3+),human PBMCs; 4 hr activation,10%
same,CD86+ percent expression in B-cells (CD19+),human PBMCs; 4 hr activation,8%
same,CD95+ percent expression in B-cells (CD19+),human PBMCs; 4 hr activation,7%
same,MFI CD11b+ in Mono/Macs (CD14+),human PBMCs; 4 hr activation,1870
same,MFI CD54+ (ICAM-1) in B-cells (CD19+),human PBMCs; 4 hr activation,65
same,MFI CD54+(ICAM-1) in Mono/Macs (CD14+),human PBMCs; 4 hr activation,743
same,TLR2+ percent expression in Mono/Macs (CD14+),human PBMCs; 4 hr activation,85%
same,CD3+ CD69+ percent expression in NK-Cells (CD56+),human PBMCs; 24 hr activation,16%
same,CD14+ CD25+ percent expression in Mono/Macs (CD14+),human PBMCs; 24 hr activation,70%
same,CD14+ CD69+ percent expression in Mono/Macs (CD14+),human PBMCs; 24 hr activation,22%
same,CD14+ TLR2+ percent expression in Mono/Macs (CD14+),human PBMCs; 24 hr activation,97%
same,CD19+ CD25+ percent expression in B-Cells (CD19+),human PBMCs; 24 hr activation,34%
same,CD19+ CD69+ percent expression in B-Cells (CD19+),human PBMCs; 24 hr activation,66%
same,CD19+ CD86+ percent expression in B-Cells (CD19+),human PBMCs; 24 hr activation,51%
same,CD19+ CD95+ percent expression in B-Cells (CD19+),human PBMCs; 24 hr activation,73%
same,CD69+ percent expression in NK-Cells (CD56+),human PBMCs; 24 hr activation,50%
same,CD69+ percent expression in T-cells (CD3+),human PBMCs; 24 hr activation,10%
same,MFI CD11b+ in Mono/Macs (CD14+),human PBMCs; 24 hr activation,1611
same,MFI CD54+ (ICAM-1) in B-cells (CD19+),human PBMCs; 24 hr activation,211
same,MFI CD54+(ICAM-1) in Mono/Macs (CD14+),human PBMCs; 24 hr activation,4445
same,IL-1β cba2,human whole blood; donor 1,7102
same,IL10/TNFα cba,human whole blood; donor 1,0.4
same,TNFα/IL10 cba,human whole blood; donor 1,2.5
same,IL10/TNFα cba,human whole blood; donor 2,0.3
same,TNFα/IL10 cba,human whole blood; donor 2,3.4
same,% inhib. LPS IL-8,[2],5%
CCCCCCCCCCCCCC(=O)O[C@H](CCCCCCCCCCC)CC(=O)NCCO[C@@H]1O[C@H](CO)[C@@H](OP(=O)(O)O)[C@H](OC(=O)C[C@@H](CCCCCCCCCCC)OC(=O)CCCCCCCCCCCCC)[C@H]1NC(=O)C[C@@H](CCCCCCCCCCC)OC(=O)CCCCCCCCCCCCC.CCN(CC)CC [RC-529],IL-6 elaboration compared to MPL,[3],"induced more IL-6, IL-10 and MIP-1 beta than did MPL"
same,IL-10 elaboration compared to MPL,[3],"induced more IL-6, IL-10 and MIP-1 beta than did MPL"
same,MIP-1 beta elaboration compared to MPL,[3],"induced more IL-6, IL-10 and MIP-1 beta than did MPL"
same,IL10/TNFα cba,human whole blood; donor 1,6.2
same,TNFα/IL10 cba,human whole blood; donor 1,0.4
CCCCCCCCCCC[C@H](CC(=O)N[C@H](CO)CCO[C@@H]1O[C@H](CO)[C@@H](OP(=O)(O)O)[C@H](OC(=O)C[C@@H](CCCCCCCCCCC)OC(=O)CCCCCCCCC)[C@H]1NC(=O)C[C@@H](CCCCCCCCCCC)OC(=O)CCCCCCCCC)OC(=O)CCCCCCCCC.CCN(CC)CC [RC-540],protection against L. monocytogenes challenge (reduction of log 10 bacteria per spleen vs vehicle),[1],protection that was equal to or greater than that provided by MPL
same,IL10/TNFα cba,human whole blood; donor 1,5.5
same,TNFα/IL10 cba,human whole blood; donor 1,0.2
same,IL10/TNFα cba,human whole blood; donor 2,5.2
same,TNFα/IL10 cba,human whole blood; donor 2,0.2
CCCCCCCCCCC[C@H](CC(=O)N[C@H]1[C@H](OC[C@H](NC(=O)C[C@@H](CCCCCCCCCCC)OC(=O)CCCCCCCCC)C(=O)O)O[C@H](CO)[C@@H](OP(=O)(O)O)[C@@H]1OC(=O)C[C@@H](CCCCCCCCCCC)OC(=O)CCCCCCCCC)OC(=O)CCCCC.CCN(CC)CC [RC-565],"protection against influenza challenge, compared by secondary fatty acid chains",influenza A/HK/68,more protective than those having fewer
same,% inhib. LPS IL-8,[2],16%
CCCCCCCCCCC[C@H](CC(=O)N[C@H]1[C@H](OC[C@H](NC(=O)C[C@@H](CCCCCCCCCCC)OC(=O)CCCCC)C(=O)O)O[C@H](CO)[C@@H](OP(=O)(O)O)[C@@H]1OC(=O)C[C@@H](CCCCCCCCCCC)OC(=O)CCCCCCCCC)OC(=O)CCCCCCCCC.CCN(CC)CC [RC-569],"protection against influenza challenge, compared by secondary fatty acid chains",influenza A/HK/68,more protective than those having fewer
same,% inhib. LPS IL-8,[2],−13%
